Where a SMILES comes first, the peptide text is derived from it.
Target: T1, BTLA/HVEM complex (Homo sapiens, UniProt Q92956)
T1 construct: purchased ACROBiosystems HVM-H52E9 (HVEM-His); BTA-H5255 (BTLA-Fc)
T1 sequence (Q92956 39-202 limits assumed): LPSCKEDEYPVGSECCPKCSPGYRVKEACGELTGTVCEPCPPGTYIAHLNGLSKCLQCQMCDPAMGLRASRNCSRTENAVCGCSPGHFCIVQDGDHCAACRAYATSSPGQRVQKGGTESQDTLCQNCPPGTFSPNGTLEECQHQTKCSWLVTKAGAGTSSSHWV
Test: ELISA inhibition of BTLA/HVEM complex formation
Assay type: biochemical
Details: immobilized HVEM-His, BTLA-Fc 5 μg/mL, PBS-T, 37 °C, mean of three independent experiments; for inhibition at 16.67 µM: peptide 16.67 μM; for inhibition at 50 µM: peptide 50 μM; for inhibition at 150 µM: peptide 150 μM
Method: In the subsequent stage of the study, the potential of the obtained compounds to inhibit the interaction between BTLA and HVEM proteins was evaluated using ELISA, following the methodology described in our previous studies. , HVEM was immobilized on the plate and incubated with peptides at three different concentrations, followed by the addition of Fc-tagged BTLA. Detection was carried out using horseradish peroxidase (HRP) conjugated with anti-human IgG and 3,3′,5,5′-tetramethylbenzidine (TMB) as a substrate. Signal intensity was directly proportional to the amount of BTLA bound to HVEM and inversely proportional to the inhibitory activity of the tested peptides. As a control, BTLA and HVEM were incubated in the absence of peptides.
Recombinant human HVEM protein with a His tag was purchased from ACROBiosystems, Newark, DE, USA (no. HVM-H52E9). Recombinant human protein BTLA-Fc and LIGHT-Fc were also purchased from ACROBiosystems, Newark, DE, USA (no. BTA-H5255 and no. LIT-H5269).
ELISA was performed using transparent 96-well NUNC Maxisorp plates (Thermo Fisher Scientific, Waltham, MA, USA). In the first step, HVEM-His, dissolved in PBS at a concentration of 5 μg/mL (100 μL/well), was immobilized on the plate by overnight incubation at 4 °C. Wells were then blocked with 5% bovine serum albumin (BSA) in PBS containing 0.05% Tween 20 (PBS-T) (200 μL/well). Next, peptides dissolved in PBS-T at concentrations of 150, 50, and 16.67 μM were added to the wells (100 μL/well). Following this, BTLA-Fc in PBS-T at a concentration of 5 μg/mL (100 μL/well) was applied. In the next step, goat anti-human IgG antibody conjugated with the HRP (Bio-Rad Laboratories, Hercules, CA, USA) in PBS-T at a ratio of 1:30,000 (v/v) was added (100 μL/well). Colorimetric detection was performed by adding 100 μL of TMB substrate (Thermo Fisher Scientific, Waltham, MA, USA) to each well and incubating the plate in the dark. At each stage, plates were incubated at 37 °C with continuous shaking for 1 h (except TMB, which was incubated for 15 min). After each incubation, wells were washed five times with PBS-T. Absorbance was measured using an Infinite M200 Pro Reader (Tecan Group Ltd., Männedorf, Switzerland) at wavelengths of 650 nm (measurement wavelength) and 492 nm (reference wavelength). Inhibition assays for the HVEM/LIGHT complex were conducted using the same approach, except that LIGHT was used instead of BTLA. The BTLA/HVEM and HVEM/LIGHT complexes without peptides served as controls. Inhibition percentages were calculated based on the assumption that PBS-T has no effect on the formation of BTLA/HVEM or HVEM/LIGHT complexes. Each ELISA was conducted in at least three independent replicates. The data were analyzed using GraphPad Prism 8 software (San Diego, CA, USA).

`CC[C@H](NC(=O)[C@H](CC)NC(=O)[C@H](CCC(N)=O)NC(=O)[C@H](Cc1ccc(O)cc1)NC(C)=O)C(=O)N[C@@H](C)C(=O)N[C@@H](CCCNC(=N)N)C(=O)N[C@@H](CO)C(=O)N[C@@H](CCC(N)=O)C(=O)N[C@@H](CCCCN)C(=O)N[C@@H](CO)C(=O)NCC(=O)N[C@H](C(=O)N[C@@H](CCCNC(=N)N)C(=O)N[C@@H](CC(C)C)C(=O)N[C@@H](CCC(N)=O)C(=O)NCC(=O)N[C@@H](Cc1c[nH]cn1)C(=O)N[C@@H](Cc1ccccc1)C(=O)N[C@@H](Cc1ccccc1)C(N)=O)[C@@H](C)CC` [A1, CD160(110–128)^(C112X,C113X)] (HELM PEPTIDE1{[ac].Y.Q.[Abu].[Abu].A.R.S.Q.K.S.G.I.R.L.Q.G.H.F.F.[am]}$$$$V2.0) gave an inhibition at 16.67 µM of 4.31%, an inhibition at 50 µM of 6.28% and an inhibition at 150 µM of 7.44%.
For `CC[C@@H]1NC(=O)[C@H](CC)NC(=O)[C@@H](NC(=O)[C@H](Cc2ccc(O)cc2)NC(C)=O)CSSC[C@@H](C(=O)N[C@@H](Cc2ccccc2)C(N)=O)NC(=O)[C@H](Cc2c[nH]cn2)NC(=O)CNC(=O)[C@H](CCC(N)=O)NC(=O)[C@H](CC(C)C)NC(=O)[C@H](CCCNC(=N)N)NC(=O)[C@H]([C@@H](C)CC)NC(=O)CNC(=O)[C@H](CO)NC(=O)[C@H](CCCCN)NC(=O)[C@H](CCC(N)=O)NC(=O)[C@H](CO)NC(=O)[C@H](CCCNC(=N)N)NC(=O)[C@H](C)NC1=O` [A2, CD160(110–128)^(Q111C,C112X,C113X,F127C)] (HELM PEPTIDE1{[ac].Y.C.[Abu].[Abu].A.R.S.Q.K.S.G.I.R.L.Q.G.H.C.F.[am]}$PEPTIDE1,PEPTIDE1,3:R3-19:R3$$$V2.0), the inhibition at 16.67 µM was 1.45%, the inhibition at 50 µM was 3% and the inhibition at 150 µM was 2.26%.
`CC[C@@H]1NC(=O)[C@H](CC(C)C)NC(=O)[C@@H](NC(=O)[C@@H](NC(=O)[C@@H](NC(=O)[C@H](Cc2ccccc2)NC(C)=O)C(C)C)C(C)C)CSSC[C@@H](C(=O)N[C@@H](CC(C)C)C(=O)N[C@@H](CCCNC(=N)N)C(=O)N[C@@H](CC(C)C)C(N)=O)NC(=O)[C@H](CCCCN)NC(=O)[C@H](CC(C)C)NC(=O)[C@H](CO)NC(=O)[C@H]([C@@H](C)O)NC(=O)[C@H](CCC(=O)O)NC(=O)[C@@H]2CCCN2C(=O)[C@H](CO)NC(=O)[C@H](CC)NC(=O)[C@H](CC(=O)O)NC(=O)CNC(=O)[C@H](CO)NC(=O)[C@H](CCCNC(=N)N)NC(=O)[C@H](CC(=O)O)NC(=O)[C@H](CCCCN)NC1=O` [B4, CD160(56–79)^(F59C,C61X,C68X,Q76C)] (HELM PEPTIDE1{[ac].F.V.V.C.L.[Abu].K.D.R.S.G.D.[Abu].S.P.E.T.S.L.K.C.L.R.L.[am]}$PEPTIDE1,PEPTIDE1,5:R3-22:R3$$$V2.0) was tested, and the inhibition at 16.67 µM was -4.42%, the inhibition at 50 µM was 0.29% and the inhibition at 150 µM was 9.93%.
For `CC[C@H](NC(=O)[C@H](CC(C)C)NC(=O)[C@H](Cc1ccccc1)NC(=O)[C@@H](NC(=O)[C@@H](NC(=O)[C@H](Cc1ccccc1)NC(C)=O)C(C)C)C(C)C)C(=O)N[C@@H](CCCCN)C(=O)N[C@@H](CC(=O)O)C(=O)N[C@@H](CCCNC(=N)N)C(=O)N[C@@H](CO)C(=O)NCC(=O)N[C@@H](CC(=O)O)C(=O)N[C@@H](CC)C(=O)N[C@@H](CO)C(=O)N1CCC[C@H]1C(=O)N[C@@H](CCC(=O)O)C(=O)N[C@H](C(=O)N[C@@H](CO)C(=O)N[C@@H](CC(C)C)C(=O)N[C@@H](CCCCN)C(=O)N[C@@H](CCC(N)=O)C(=O)N[C@@H](CC(C)C)C(=O)N[C@@H](CCCNC(=N)N)C(=O)N[C@@H](CC(C)C)C(N)=O)[C@@H](C)O` [B1, CD160(56–79)^(C61X,C68X)] (HELM PEPTIDE1{[ac].F.V.V.F.L.[Abu].K.D.R.S.G.D.[Abu].S.P.E.T.S.L.K.Q.L.R.L.[am]}$$$$V2.0), the inhibition at 16.67 µM was 1.49% and the inhibition at 50 µM was 4.68%.
`CC[C@H](NC(=O)[C@H](CCC(N)=O)NC(=O)[C@H](Cc1ccc(O)cc1)NC(C)=O)C(=O)N[C@@H](CC)C(=O)N[C@H]1CSSC[C@@H](C(=O)N[C@@H](CCC(N)=O)C(=O)NCC(=O)N[C@@H](Cc2c[nH]cn2)C(=O)N[C@@H](Cc2ccccc2)C(=O)N[C@@H](Cc2ccccc2)C(N)=O)NC(=O)[C@H](CCCNC(=N)N)NC(=O)[C@H]([C@@H](C)CC)NC(=O)CNC(=O)[C@H](CO)NC(=O)[C@H](CCCCN)NC(=O)[C@H](CCC(N)=O)NC(=O)[C@H](CO)NC(=O)[C@H](CCCNC(=N)N)NC1=O` [A4, CD160(110–128)^(C112X,C113X,A114C,L123C)] (HELM PEPTIDE1{[ac].Y.Q.[Abu].[Abu].C.R.S.Q.K.S.G.I.R.C.Q.G.H.F.F.[am]}$PEPTIDE1,PEPTIDE1,6:R3-15:R3$$$V2.0) showed an inhibition at 16.67 µM of -2.23%, an inhibition at 50 µM of -0.34% and an inhibition at 150 µM of -1.77%.
Work on `CC[C@@H]1NC(=O)[C@@H](NC(=O)[C@H](Cc2ccccc2)NC(=O)[C@@H](NC(=O)[C@@H](NC(=O)[C@H](Cc2ccccc2)NC(C)=O)C(C)C)C(C)C)CSSC[C@@H](C(=O)N[C@@H](CCCCN)C(=O)N[C@@H](CCC(N)=O)C(=O)N[C@@H](CC(C)C)C(=O)N[C@@H](CCCNC(=N)N)C(=O)N[C@@H](CC(C)C)C(N)=O)NC(=O)[C@H](CO)NC(=O)[C@H]([C@@H](C)O)NC(=O)[C@H](CCC(=O)O)NC(=O)[C@@H]2CCCN2C(=O)[C@H](CO)NC(=O)[C@H](CC)NC(=O)[C@H](CC(=O)O)NC(=O)CNC(=O)[C@H](CO)NC(=O)[C@H](CCCNC(=N)N)NC(=O)[C@H](CC(=O)O)NC(=O)[C@H](CCCCN)NC1=O` [B3, CD160(56–79) ^(L60C,C61X,C68X,L74C)] (HELM PEPTIDE1{[ac].F.V.V.F.C.[Abu].K.D.R.S.G.D.[Abu].S.P.E.T.S.C.K.Q.L.R.L.[am]}$PEPTIDE1,PEPTIDE1,6:R3-20:R3$$$V2.0) yielded an inhibition at 16.67 µM of -4.44%, an inhibition at 50 µM of -5.5% and an inhibition at 150 µM of -4.74%.
Work on `CC[C@@H]1NC(=O)[C@@H](NC(=O)[C@H](Cc2ccccc2)NC(C)=O)CSSC[C@@H](C(=O)N[C@@H](CCCCN)C(N)=O)NC(=O)[C@H](CO)NC(=O)[C@H]([C@@H](C)O)NC(=O)[C@H](CCC(=O)O)NC(=O)[C@@H]2CCCN2C(=O)[C@H](CO)NC(=O)[C@H](CC)NC(=O)[C@H](CC(=O)O)NC(=O)CNC(=O)[C@H](CO)NC(=O)[C@H](CCCNC(=N)N)NC(=O)[C@H](CC(=O)O)NC(=O)[C@H](CCCCN)NC1=O` [C2, CD160(59–75)^(L60C,C61X,L74C)] (HELM PEPTIDE1{[ac].F.C.[Abu].K.D.R.S.G.D.[Abu].S.P.E.T.S.C.K.[am]}$PEPTIDE1,PEPTIDE1,3:R3-17:R3$$$V2.0) yielded an inhibition at 16.67 µM of -0.94%, an inhibition at 50 µM of 1% and an inhibition at 150 µM of 0.77%.
`CC[C@H](NC(=O)[C@H](CC(C)C)NC(=O)[C@H](Cc1ccccc1)NC(C)=O)C(=O)N[C@@H](CCCCN)C(=O)N[C@@H](CC(=O)O)C(=O)N[C@@H](CCCNC(=N)N)C(=O)N[C@@H](CO)C(=O)NCC(=O)N[C@@H](CC(=O)O)C(=O)N[C@@H](CC)C(=O)N[C@@H](CO)C(=O)N1CCC[C@H]1C(=O)N[C@@H](CCC(=O)O)C(=O)N[C@H](C(=O)N[C@@H](CO)C(=O)N[C@@H](CC(C)C)C(=O)N[C@@H](CCCCN)C(N)=O)[C@@H](C)O` [C1, CD160(59–75)^(C61X,C68X)] (HELM PEPTIDE1{[ac].F.L.[Abu].K.D.R.S.G.D.[Abu].S.P.E.T.S.L.K.[am]}$$$$V2.0) was tested, and the inhibition at 16.67 µM was 4.03%, the inhibition at 50 µM was 2.63% and the inhibition at 150 µM was 1.99%.
